Assay results reported in US12060385B2, “Compounds for RNA capping and uses thereof” (GUANGZHOU HENOVCOM BIOSCIENCE CO., LTD., priority 2022, dated 2024).

Columns and labels:
Type in all cases: biochemical
[1] = molecular target: T7 RNA Polymerase (Escherichia phage T7, UniProt P00573); settings: 20 μL transcription system, Cap1 Analog 4 mM, 37° C. 2 to 3 hours
Experimental: • 1) A plasmid was linearized and the DNA template was purified. • 2) mRNA was synthesized in vitro with 51 types of capping structures of the present disclosure, or without any cap analogues. CleanCap®AG (3′OMe) (Trilink, N-7413) was applied as positive control group, uncapped mRNA was negative control group, and DNAase/RNase-Free water was a blank control group.
The system was incubated for 2 to 3 hours at 37° C. and digested by TURBO DNase for 15 min LiCl was used to precipitate mRNA for at least 30 min, or overnight, mRNA precipitates were then washed with 75% ethanol. After ethanol was quickly volatilized, mRNA was re-solubilized with RNase-Free water. • 3) The transcribed products were purified and the transcription yields were calculated.

[2] = test system: mRNA; experiment: Capping efficiency of mRNA with different cap analogs by LC-MS; settings: LC-MS after RNase H cleavage
Experimental: In a PCR machine, the annealing was performed using the following gradients: • 95° C. for 5 min; 65° C. for 2 min; 55° C. for 2 min; 40° C. for 2 min; 22° C. for 2 min • 5) Pre-treatment of magnetic beads were bound with probes.
100 μL of magnetic beads were placed on a magnetic rack and the preservation solution was removed. 100 μL of 1*BW solution was added, mixed well, and placed on the magnetic rack, and the supernatant was then removed. The washing step was repeated three times. 100 μL of wash A buffer was added, mixed well, and placed on the magnetic rack, and the supernatant was then removed. The washing step was repeated three times. 100 μL of wash B buffer was added, mixed well, and placed on the magnetic rack, and the supernatant was then removed. The washing step was repeated three times. After 120 μL of sample was added, the sample and the magnetic beads solution were incubated for 30 min at room temperature, and they were gently mixed well while incubation. • 6) mRNA was spliced to obtain 5′ end mRNA single stranded sequence and binding with the probe.
20 μL of RNase H (5 U/mL) was added, incubated for 3 hours at 37° C., mixed once every half an hour. 100 μL of 1*BW solution was added, mixed well, and placed on the magnetic rack, and then the supernatant was removed. The washing step was repeated three times. Subsequently, 100 μL of deionized aqueous solution was added, mixed well, and placed on the magnetic rack, and the supernatant was then removed. The washing step was repeated three times. 100 μL of 75% methanol at 80° C. was added, and the mixture was incubated at 80° C. on a heater plate for 3 min, and placed on the magnetic rack, and the supernatant was then pipetted. The sample was dried using an evaporative centrifuge at room temperature for 45 min to 10 μL, and then resuspended in 50 μL of 100 μM EDTA solution in 1% MeOH for LC-MS analysis.
The capping efficiencies of mRNA with different cap analogs were determined by LC-MS, and some compounds of the results were shown in Table 4.

[3] = test system: mRNA Decapping Enzyme; experiment: Stability of the capped mRNA against the mRNA decapping enzymes
Experimental: • 1) The capped mRNAs were heated at 65° C. for 10 min and their secondary structures were unfolded. • 2) The concentration of mRNA Deacpping Enzyme was diluted from the original concentration (100 U/uL) to 50 U/uL, 5 U/uL, 0.5 U/uL in a 10-fold gradient dilution ratio. • 3) The capped mRNAs were added to the reaction, and the amount of enzyme in the reaction was 50 U, 5 U, 0.5 U, 0 U, respectively. The mixture was mixed with a pipette, and was incubated at 37° C. for 1 hour.
• 4) The RNA was purified using a LiCl Precipitation method, and then diluted to 500 ng/uL*20 uL for subsequent cell transfection. • 5) The cells were transfected with mRNA, and luciferase expression was detected in the same method as Experiment 2.
In FIG. 1, the luminescence unit of luciferase expressed by mRNA without decapping enzyme treatment (0 U) was 100%, and the percentage of the luminescence unit of luciferase expressed by capped mRNA treated with different concentrations of […] to the luminescence unit of luciferase expressed by capped mRNA without decapping enzyme treatment was calculated.

Sequence of T7 RNA Polymerase (P00573 whole entry): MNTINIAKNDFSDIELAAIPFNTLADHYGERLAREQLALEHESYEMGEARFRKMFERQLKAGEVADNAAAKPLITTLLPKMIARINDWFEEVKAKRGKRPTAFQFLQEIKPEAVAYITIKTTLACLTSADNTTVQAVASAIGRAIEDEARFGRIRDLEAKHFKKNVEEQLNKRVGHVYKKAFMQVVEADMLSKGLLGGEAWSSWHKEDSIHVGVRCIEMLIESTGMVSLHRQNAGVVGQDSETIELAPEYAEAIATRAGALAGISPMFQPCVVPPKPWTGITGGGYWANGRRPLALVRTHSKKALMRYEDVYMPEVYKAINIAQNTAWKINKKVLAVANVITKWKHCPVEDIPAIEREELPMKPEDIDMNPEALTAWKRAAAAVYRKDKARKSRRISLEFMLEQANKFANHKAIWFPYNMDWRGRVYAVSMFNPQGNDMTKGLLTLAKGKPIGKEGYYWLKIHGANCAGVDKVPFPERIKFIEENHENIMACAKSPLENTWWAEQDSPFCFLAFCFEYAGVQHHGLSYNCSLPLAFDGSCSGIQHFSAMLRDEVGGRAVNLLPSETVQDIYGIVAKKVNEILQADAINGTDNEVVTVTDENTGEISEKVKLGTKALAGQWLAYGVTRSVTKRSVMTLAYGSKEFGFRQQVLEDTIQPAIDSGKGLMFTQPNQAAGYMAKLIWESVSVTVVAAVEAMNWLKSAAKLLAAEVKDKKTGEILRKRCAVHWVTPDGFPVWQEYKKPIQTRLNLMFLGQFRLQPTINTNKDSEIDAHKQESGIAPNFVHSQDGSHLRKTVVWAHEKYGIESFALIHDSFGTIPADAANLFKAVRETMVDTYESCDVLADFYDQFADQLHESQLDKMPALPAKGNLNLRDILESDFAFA

COC[C@H]1[C@@H](O)[C@H](n2c[n+](C)c3c(=O)[nH]c(N)nc32)O[C@@H]1COP(=O)(O)OP(=O)(O)CP(=O)(O)OC[C@H]1O[C@@H](n2cnc3c(N)ncnc32)[C@H](OC)[C@@H]1OP(=O)(O)OC[C@H]1O[C@@H](n2cnc3c(=O)[nH]c(N)nc32)[C@H](O)[C@@H]1O [Compound 173]
Final product mass obtained from the 20 μL of mRNA transcription system [1]: 118 µg | Capping efficiency [2]: A (100% > A ≥ 95%) | Stability of capped mRNA against decapping enzyme (FIG. 1) ([3]; at low concentration of decapping enzyme): the same stability as that of N-7413 | Stability of capped mRNA against decapping enzyme (FIG. 1) ([3]; when the concentration of decapping enzyme was higher): a better stability than that of N-7413
